From the supplement of paper PMC10307832

Assays:
Assay in all cases: relative viability (nuclei count vs DMSO), 5 days (fraction); higher = more cells survive
[1] = test system: ABC-1
Method in brief: (§1)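 Relative viability divides the nuclei count in treated wells by that in vehicle wells. Lung cancer cell lines were seeded in 1536-well plates, dosed by pin tool the next day, and fixed and stained after 5 days in one step with final 0.05% Triton X-100, 1% formaldehyde and 1 ug/ml Hoechst. Dosing was a single drug or a fixed anchor-drug dose plus five library-drug doses (not always all listed) in √10 steps, and values are medians of duplicate plates imaged at 4×.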

[2] = test system: NCI-H520
Method in brief: as §1

[3] = test system: RERF-LC-KJ
Method in brief: as §1

[4] = test system: NCI-H647
Method in brief: as §1

[5] = test system: A-427
Method in brief: as §1

[6] = test system: NCI-H2085
Method in brief: as §1

[7] = test system: HARA
Method in brief: as §1

[8] = test system: NCI-H2126
Method in brief: as §1

[9] = test system: SW 900
Method in brief: as §1

[10] = test system: LOU-NH91
Method in brief: as §1

[11] = test system: BEN
Method in brief: as §1

[12] = test system: LCLC-103H
Method in brief: as §1

[13] = test system: NCI-H661
Method in brief: as §1

[14] = test system: NCI-H1651
Method in brief: as §1

[15] = test system: NCI-H596
Method in brief: as §1

[16] = test system: NCI-H1944
Method in brief: as §1

[17] = test system: NCI-H1666
Method in brief: as §1

[18] = test system: NCI-H727
Method in brief: as §1

[19] = test system: NCI-H460
Method in brief: as §1

[20] = test system: NCI-H1734
Method in brief: as §1

[21] = test system: NCI-H1975
Method in brief: as §1

[22] = test system: NCI-H838
Method in brief: as §1

CCNC(=O)c1noc(-c2cc(C(C)C)c(O)cc2O)c1-c1ccc(CN2CCOCC2)cc1 [Luminespib] + Nc1ncn([C@H]2C[C@H](O)[C@@H](CO)O2)c(=O)n1 [Decitabine] (partner 2 µM)
relative viability ([1]; first compound 0.002 µM): 1.19 | relative viability ([1]; first compound 0.006325 µM): 1.18 | relative viability ([1]; first compound 0.02 µM): 1.16 | relative viability ([1]; first compound 0.06325 µM): 0.755 | relative viability ([1]; first compound 0.2 µM): 0.344 | relative viability ([2]; first compound 0.002 µM): 0.533 | relative viability ([2]; first compound 0.006325 µM): 0.506 | relative viability ([2]; first compound 0.02 µM): 0.317 | relative viability ([2]; first compound 0.06325 µM): 0.167 | relative viability ([2]; first compound 0.2 µM): 0.152 | relative viability ([3]; first compound 0.002 µM): 0.759 | relative viability ([3]; first compound 0.006325 µM): 0.669 | relative viability ([3]; first compound 0.02 µM): 0.417 | relative viability ([3]; first compound 0.06325 µM): 0.225 | relative viability ([3]; first compound 0.2 µM): 0.198 | relative viability ([4]; first compound 0.002 µM): 0.391 | relative viability ([4]; first compound 0.006325 µM): 0.484 | relative viability ([4]; first compound 0.02 µM): 0.18 | relative viability ([4]; first compound 0.06325 µM): 0.0995 | relative viability ([4]; first compound 0.2 µM): 0.124 | relative viability ([5]; first compound 0.002 µM): 0.611 | relative viability ([5]; first compound 0.006325 µM): 0.514 | relative viability ([5]; first compound 0.02 µM): 0.446 | relative viability ([5]; first compound 0.06325 µM): 0.599 | relative viability ([5]; first compound 0.2 µM): 0.269 | relative viability ([6]; first compound 0.002 µM): 0.547 | relative viability ([6]; first compound 0.006325 µM): 0.577 | relative viability ([6]; first compound 0.02 µM): 0.519 | relative viability ([6]; first compound 0.06325 µM): 0.486 | relative viability ([6]; first compound 0.2 µM): 0.346 | relative viability ([7]; first compound 0.002 µM): 0.55 | relative viability ([7]; first compound 0.006325 µM): 0.569 | relative viability ([7]; first compound 0.02 µM): 0.532 | relative viability ([7]; first compound 0.06325 µM): 0.225 | relative viability ([7]; first compound 0.2 µM): 0.227 | relative viability ([8]; first compound 0.002 µM): 0.573 | relative viability ([8]; first compound 0.006325 µM): 0.587 | relative viability ([8]; first compound 0.06325 µM): 0.593 | relative viability ([8]; first compound 0.2 µM): 0.507 | relative viability ([9]; first compound 0.002 µM): 0.478 | relative viability ([9]; first compound 0.006325 µM): 0.472 | relative viability ([9]; first compound 0.02 µM): 0.417 | relative viability ([9]; first compound 0.06325 µM): 0.156 | relative viability ([9]; first compound 0.2 µM): 0.159 | relative viability ([10]; first compound 0.002 µM): 0.8 | relative viability ([10]; first compound 0.006325 µM): 0.844 | relative viability ([10]; first compound 0.02 µM): 0.686 | relative viability ([10]; first compound 0.06325 µM): 0.382 | relative viability ([10]; first compound 0.2 µM): 0.436 | relative viability ([11]; first compound 0.002 µM): 0.84 | relative viability ([11]; first compound 0.006325 µM): 0.644 | relative viability ([11]; first compound 0.02 µM): 0.458 | relative viability ([11]; first compound 0.06325 µM): 0.306 | relative viability ([11]; first compound 0.2 µM): 0.294 | relative viability ([12]; first compound 0.002 µM): 0.732 | relative viability ([12]; first compound 0.006325 µM): 0.702 | relative viability ([12]; first compound 0.02 µM): 0.721 | relative viability ([12]; first compound 0.06325 µM): 0.74 | relative viability ([12]; first compound 0.2 µM): 0.691 | relative viability ([13]; first compound 0.002 µM): 0.554 | relative viability ([13]; first compound 0.006325 µM): 0.544 | relative viability ([13]; first compound 0.02 µM): 0.454 | relative viability ([13]; first compound 0.06325 µM): 0.315 | relative viability ([13]; first compound 0.2 µM): 0.309 | relative viability ([14]; first compound 0.002 µM): 0.612 | relative viability ([14]; first compound 0.006325 µM): 0.553 | relative viability ([14]; first compound 0.02 µM): 0.594 | relative viability ([14]; first compound 0.06325 µM): 0.469 | relative viability ([14]; first compound 0.2 µM): 0.226 | relative viability ([15]; first compound 0.002 µM): 1.07 | relative viability ([15]; first compound 0.006325 µM): 0.887 | relative viability ([15]; first compound 0.02 µM): 0.88 | relative viability ([15]; first compound 0.06325 µM): 0.991 | relative viability ([15]; first compound 0.2 µM): 1.01 | relative viability ([16]; first compound 0.002 µM): 0.493 | relative viability ([16]; first compound 0.006325 µM): 0.454 | relative viability ([16]; first compound 0.02 µM): 0.405 | relative viability ([16]; first compound 0.06325 µM): 0.405 | relative viability ([16]; first compound 0.2 µM): 0.415 | relative viability ([17]; first compound 0.002 µM): 0.701 | relative viability ([17]; first compound 0.006325 µM): 0.676 | relative viability ([17]; first compound 0.02 µM): 0.715 | relative viability ([17]; first compound 0.06325 µM): 0.71 | relative viability ([17]; first compound 0.2 µM): 0.544 | relative viability ([18]; first compound 0.002 µM): 0.893 | relative viability ([18]; first compound 0.006325 µM): 0.857 | relative viability ([18]; first compound 0.02 µM): 0.652 | relative viability ([18]; first compound 0.06325 µM): 0.461 | relative viability ([18]; first compound 0.2 µM): 0.368 | relative viability ([19]; first compound 0.002 µM): 0.473 | relative viability ([19]; first compound 0.006325 µM): 0.432 | relative viability ([19]; first compound 0.02 µM): 0.0674 | relative viability ([19]; first compound 0.06325 µM): 0.0264 | relative viability ([19]; first compound 0.2 µM): 0.0329 | relative viability ([20]; first compound 0.002 µM): 0.489 | relative viability ([20]; first compound 0.006325 µM): 0.469 | relative viability ([20]; first compound 0.02 µM): 0.448 | relative viability ([20]; first compound 0.06325 µM): 0.251 | relative viability ([20]; first compound 0.2 µM): 0.159 | relative viability ([21]; first compound 0.002 µM): 0.393 | relative viability ([21]; first compound 0.006325 µM): 0.346 | relative viability ([21]; first compound 0.02 µM): 0.355 | relative viability ([21]; first compound 0.06325 µM): 0.127 | relative viability ([21]; first compound 0.2 µM): 0.144 | relative viability ([22]; first compound 0.002 µM): 0.495 | relative viability ([22]; first compound 0.006325 µM): 0.491 | relative viability ([22]; first compound 0.02 µM): 0.422 | relative viability ([22]; first compound 0.06325 µM): 0.176 | relative viability ([22]; first compound 0.2 µM): 0.193
